Converted amounts (≈) assume the structure as drawn. The source made the active and inactive calls. No cut-off for these calls is given here.
Key:
Staphylococcus aureus [1] = assay: Antibacterial activity against methicillin-resistant Staphylococcus aureus clinical isolate N315 by liquid microdilution method; type: functional
Staphylococcus aureus [2] = assay: Antibacterial activity against methicillin-resistant Staphylococcus aureus clinical isolate OM481 by liquid microdilution method; type: functional
Staphylococcus aureus [3] = assay: Antibacterial activity against methicillin-resistant Staphylococcus aureus clinical isolate OM584 by liquid microdilution method; type: functional
Staphylococcus aureus [4] = assay: Bactericidal activity against methicillin-resistant Staphylococcus aureus at 4 times MIC by cell survival assay; type: functional, organism-based
Staphylococcus aureus [5] = assay: Bacteriostatic activity against methicillin-resistant Staphylococcus aureus at 4 times MIC by cell survival assay; type: functional, organism-based
Staphylococcus aureus [6] = assay: Antibacterial activity against 2-phenoxyphenol and trichlosan-resistant Staphylococcus aureus clinical isolate N315 by liquid microdilution method; type: functional
Staphylococcus aureus [7] = assay: Antibacterial activity against methicillin-resistant Staphylococcus aureus at 4 times MIC by cell survival assay; type: functional, organism-based

| SMILES | MIC (Staphylococcus aureus [1]) | MIC (Staphylococcus aureus [2]) | MIC (Staphylococcus aureus [3]) | Activity (Staphylococcus aureus [4]) | Activity (Staphylococcus aureus [5]) | MIC (Staphylococcus aureus [6]) | Activity (Staphylococcus aureus [7]) |
| --- | --- | --- | --- | --- | --- | --- | --- |
| Oc1ccc2c(c1)CCc1ccc(c(O)c1)-c1ccc(O)c(c1)CCc1ccc-2c(O)c1 | 32 µg/mL (≈ 75.4 µM) | 32 µg/mL (≈ 75.4 µM) | 32 µg/mL (≈ 75.4 µM) |  |  |  |  |
| Oc1ccccc1Oc1ccccc1 | 8 µg/mL (≈ 43 µM) | 8 µg/mL (≈ 43 µM) | 8 µg/mL (≈ 43 µM) | inactive | Active |  |  |
| CC(=O)NC[C@H]1CN(c2ccc(N3CCOCC3)c(F)c2)C(=O)O1 [LINEZOLID] |  | 1 µg/mL (≈ 2.96 µM) | 1 µg/mL (≈ 2.96 µM) |  |  |  |  |
| Oc1ccc2c(c1)CCc1ccc(O)c(c1)Oc1ccc(cc1)CCc1ccc-2c(O)c1 | 4 µg/mL (≈ 9.42 µM) | 4 µg/mL (≈ 9.42 µM) | 4 µg/mL (≈ 9.42 µM) |  |  |  |  |
| Oc1ccc2c(c1)CCc1ccc(c(O)c1)Oc1cc(ccc1O)CCc1ccc-2c(O)c1 | 8 µg/mL (≈ 18.2 µM) | 16 µg/mL (≈ 36.3 µM) | 16 µg/mL (≈ 36.3 µM) |  |  |  |  |
| Oc1ccc2c(c1)CCc1ccc(c(F)c1)Oc1cc(ccc1O)CCc1ccc-2c(O)c1 | 4 µg/mL (≈ 9.04 µM) | 8 µg/mL (≈ 18.1 µM) | 8 µg/mL (≈ 18.1 µM) |  |  |  |  |
| Oc1ccc2c(c1)CCc1ccc(cc1O)Oc1cc(ccc1O)CCc1ccc-2c(O)c1 | 8 µg/mL (≈ 18.2 µM) | 8 µg/mL (≈ 18.2 µM) | 8 µg/mL (≈ 18.2 µM) |  |  |  |  |
| Oc1ccc2c(c1)CCc1ccc(cc1)Oc1cc(ccc1F)CCc1ccc-2c(O)c1 | 1 µg/mL (≈ 2.34 µM) | 1 µg/mL (≈ 2.34 µM) | 2 µg/mL (≈ 4.69 µM) |  |  |  |  |
| Oc1ccc2c(c1)CCc1ccc(cc1)Oc1cccc(c1)CCc1ccc-2c(O)c1 | 1 µg/mL (≈ 2.45 µM) | 1 µg/mL (≈ 2.45 µM) | 1 µg/mL (≈ 2.45 µM) |  |  | 1 µg/mL (≈ 2.45 µM) |  |
| Oc1ccc2c(c1)CCc1ccc(cc1)Oc1cc(ccc1O)CCc1ccc-2c(O)c1 [RICCARDI C] | 2 µg/mL (≈ 4.71 µM) | 2 µg/mL (≈ 4.71 µM) | 2 µg/mL (≈ 4.71 µM) |  |  | 2 µg/mL (≈ 4.71 µM) | Active |
| Oc1ccc2c(c1)CCc1ccc(cc1O)Oc1cccc(c1)CCc1ccc-2c(O)c1 | 4 µg/mL (≈ 9.42 µM) | 4 µg/mL (≈ 9.42 µM) | 4 µg/mL (≈ 9.42 µM) |  |  |  |  |
| Oc1ccc2cc1Oc1ccc(cc1)CCc1ccccc1-c1ccc(cc1O)CC2 | 1 µg/mL (≈ 2.45 µM) | 1 µg/mL (≈ 2.45 µM) | 1 µg/mL (≈ 2.45 µM) |  |  | 1 µg/mL (≈ 2.45 µM) |  |
| Oc1ccc2cc1Oc1ccc(cc1)CCc1ccc(O)c(c1)Oc1ccc(cc1)CC2 | > 100 µg/mL | > 100 µg/mL | > 100 µg/mL |  |  |  |  |
